Experimental data as given in patent US20030050305A1, “Thromboxane inhibitors, compositions and methods of use” (priority 2000, published 2003).

Columns and labels:
[1] = test system: Human corpus cavernosum tissue; assay: Relaxation of human corpus cavernosum tissue strips contracted with phenylephrine (organ chamber); conditions: for Relative potency in relaxing human corpus cavernosum tissue (FIG. 1B): after treatment with 0.02 μM SQ 29548; for Relaxation response in tissue from diabetic compared to non-diabetic patients (FIG. 4A, 4B): increasing concentrations of the prostaglandin alone
Method: (§1) Human corpus cavernosum specimens were obtained from impotent men at the time of penile prosthesis insertion. Tissues were maintained at 4-6° C. in M-400 solution, pH 7.4 (composition per 100 ml: mannitol, 4.19 g; KH2PO4, 0.205 g; K2HPO4.3H2O, 0.97 g; KCl, 0.112 g; NaHCO3, 0.084 g) until used. Corpus cavernosum tissues were typically used between 2 and 16 hours from extraction.
(§2) Measurement of the relaxation of corpus cavemosal tissue was carried out as follows. Corpus cavernosal tissue strips (3×3×7 mm) were immersed in a 8 ml organ chamber containing physiological salt solution, maintained at 37° C. and aerated with 5% CO2/95% air, pH 7.4. The tissues were then contracted with phenylephrine (1 μM) and the relaxation response was evaluated after the cumulative addition of the compound to the organ chamber.
(§3) In experiments where the effect of the thromboxane A2 receptor antagonist, SQ 29548 , was measured, […] was added 20 minutes before the addition of phenylephrine. In experiments where the effect of the thromboxane A2 agonist, U 46619 was measured, U 46619 was added after the phenylephrine-induced contractions stabilized, and then prostaglandin PGE1 was added 10 minutes later, if required.
The data are expressed as mean i standard error of the percentage of total relaxation induced by 100 μM papaverine hydrochloride. Statistical analysis were conducted using a two-factor ANOVA statistical analysis using StatView software for Apple computers.

[2] = test system: Human corpus cavernosum resistance arteries (helicine arteries); assay: Relaxation of human corpus cavernosum resistance arteries contracted with norepinephrine (myograph); conditions: SQ 29548 0.02 μM; increasing concentrations of acetylcholine; contracted with 1 μM norepinephrine; P<0.01
Method: Human corpus cavernosum tissues were prepared according to Example 1. Penile small arteries, helicine arteries (lumen diameter 150-400 μ), which are the terminal branches of deep penile arteries, were dissected by carefully removing the adhering trabecular tissue. Arterial ring segments (2 mm long) were subsequently mounted on two 40 μm wires on microvascular double Halpern-Mulvany myographs (J. P. Trading, Aarhus, Denmark) for isometric tension recordings.
Measurement of the relaxation of corpus cavernosal resistant arteries was carried out as follows. […]
The segments were then exposed to 125 mM K^+ (physiological salt solution potassium salt form, by the equimolar substitution of […] in physiological salt solution) and the contraction response was measured. The arteries were contracted with 1 μM norepinephrine and relaxation responses were evaluated by cumulative additions of the acetylcholine (1 nM to 3 μ) to the organ chamber. The segments were washed with fress physiological salt solution, treated with the thromboxane inhibitor SQ 29548 (0.02 μM) and the response to acetylcholine measured again.

[3] = test system: Human corpus cavernosum tissue; assay: Contractile response of human corpus cavernosum tissue from diabetic and non-diabetic patients to U 46619; conditions: tissue from diabetic vs non-diabetic patients; P<0.01
Method: as §1, §2, §3
The tissues were prepared according to Example 1. […]

[4] = contracted with 1 μM phenylephrine

CCCCC[C@H](O)CC[C@H]1[C@H](O)CC(=O)[C@@H]1CCCCCCC(=O)O [PGE0]
Relative potency in relaxing human corpus cavernosum tissue (FIG. 1B) [1, 4]: equipotent
Response of the tissue to increasing concentrations of the prostaglandin alone (FIG. 1A) ([1]; higher concentrations of PGE0, absence of SQ 29548, contracted with 1 μM phenylephrine): significant contraction of the tissue
Relaxation response in tissue from hypertensive compared to non-hypertensive patients (FIG. 7) ([1]; increasing concentrations of PGE0, contracted with 1 μM phenylephrine, P<0.01): significant reduction in the relaxation of the tissue from hypertensive patients
Relaxation response in tissue from diabetic compared to non-diabetic patients (FIG. 4A, 4B) [1, 4]: significant reduction in the relaxation of the tissue from diabetic patients

CCCCC[C@H](O)/C=C/[C@H]1[C@H](O)CC(=O)[C@@H]1CCCCCCC(=O)O [PGE1, alprostadil]
Relative potency in relaxing human corpus cavernosum tissue (FIG. 1B) [1, 4]: equipotent
Relaxation response in tissue from diabetic compared to non-diabetic patients (FIG. 4A, 4B) [1, 4]: no difference in the relaxation response

O=C(O)CCC/C=C\C[C@@H]1[C@H](CNNC(=O)Nc2ccccc2)[C@H]2CC[C@@H]1O2 [SQ 29548]
Effect of the thromboxane A2 receptor antagonist on the relaxation induced by acetylcholine (FIG. 8) [2]: significant relaxation of the tissue
Effect of the thromboxane A2 receptor antagonist on the relaxation induced by PGE0 (FIG. 2) ([1]; SQ 29548 0.02 μM, added 20 minutes before phenylephrine, increasing concentrations of PGE0, P<0.01): significant relaxation of the tissue
Effect on the reduced relaxation to PGE0 of tissue from diabetic patients (FIG. 5) ([1]; addition of 0.02 μM SQ 29548, diabetic vs non-diabetic tissue): This reduction in the relaxation of the tissue was eliminated

CCCCC[C@H](O)/C=C/[C@@H]1[C@@H](C/C=C\CCCC(=O)O)[C@H]2CO[C@@H]1C2 [U 46619]
Effect of the thromboxane A2 receptor agonist on the relaxation induced by PGE1 (FIG. 3) ([1]; U 46619 0.003 μM, increasing concentrations of prostaglandin, P<0.01): significant contraction of the tissue
Contraction response induced by increasing concentrations of the thromboxane agonist (FIG. 6) [3]: significant contraction of the tissue obtained from diabetic patients
